The source of these data is patent US7063946B2, “Methods, reagents, kits and apparatus for protein function analysis” (Meso Scale Technologies, LLC., priority 2001, dated 2006).

For one assay, the system named is pEY. The assay can be described thus: In vitro kinase library screen: activity towards pEY. It is filed as biochemical. The following applies: 5 ul of expressed protein. How it is done:
Proteins were produced in an in vitro transcription and translation reaction. […] The unbound components of the reaction containing endogenous kinases were removed by three washes with TT-buffer (25 mM Tris-HCl buffer pH 7.4 and 0.004% Triton), two five minutes washings with high-salt wash buffer (25 mM Tris-HCl buffer pH 7.4, 0.004% Triton, 1M NaCl and 5 mM DTT) and 3 more washes with TT-buffer. To these immobilized and purified proteins a tyrosine kinase substrate, 5 nM pEY (poly Glu-Tyr, Sigma, MO), was added in a 50 μl reaction solution containing 5 mM MgCl2, 5 mM MnCl2, 100 μM ATP, 25 mM Tris-HCl buffer pH 7.4, 0.05 mM Na3VO4, 0.004% TritonX-100, 2 mM DTT and EDTA-free protease inhibitor (Roche Molecular Biochemicals). This mixture was incubated with shaking at room temperature overnight to allow phosphorylation of the pEY substrate by the immobilized kinases. Following this incubation, 45 μl of this mixture was transferred to a streptavidin or avidin-coated NPT IPR plate coated with biotinylated anti-phosphotyrosine antibody (PY20, Zymed labs, CA) followed by incubation for 30 minutes at room temperature to allow the binding of the phosphorylated pEY substrate to the PY20 coated NPT plate. Following this binding step, 50 ng Sulfo-TAG labeled anti-phosphotyrosine in buffer containing 25 mM Tris-HCl buffer pH 7.4, 5 mM MgCl2, 0.05 mM Na3VO4, 0.004% TritonX-100, 2 mM DTT and 0.05% IgG was added followed by incubation at room temperature for 30 mm. The unbound reagents were removed by one time washing with water, and the TAG label was detected in presence of 150 μl IPR assay buffer (0.4 mM Gly-Gly buffer, pH 7.8, 1 mM EDTA, 0.1 M TPA). The ECL signals were measured using an imaging plate reader.
(§1) Proteins were produced in an in vitro transcription and translation reaction as described in the Materials and Methods. […] The reaction was stopped by mixing with BB2 buffer. Biotinylated proteins from 50 μl of the mixture (representing 0.5 μl to 5 μl of TnT reaction) were immobilized onto streptavidin or avidin coated NPT-IPR plates by shaking at room temperature for 45 min. The activity of the immobilized protein towards pEY or autophosphorylation was further assayed by the methods described in examples 7 and 8.

Assay [1] has as its system autophosphorylation (phosphotyrosine). The assay can be described thus: In vitro kinase library screen: autophosphorylation. It is filed as biochemical. How it is done:
Proteins were produced from DNA plasmids of Mock Luciferase, Promega, tyrosine kinase clone Spleen Tyrosine kinase (SYK, IMAGE ID# 3870426) and Eph receptor-A7 (EphA7, IMAGE ID# 3991628) (Incyte Genomics, CA) and immobilized on streptavidin or avidin coated NPT-IPR plates as described in the Example 7. To promote autophosphorylation in these immobilized and purified proteins, Mn++ ions were added in a 50 μl reaction containing 5 mM MgCl2, 5 mM MnCl2, 100 μM ATP, 25 mM Tris-HCl buffer pH 7.4, 0.05 mM Na3VO4, 0.004% TritonX-100, 2 mM DTT and EDTA-free protease inhibitor (Roche Molecular Biochemicals). This mixture was incubated with shaking at room temperature overnight to allow autophosphorylation. Following this incubation, wells were washed 2 times with TT-buffer and 2 times with water. Following this step, 50 ng Sulfo-TAG labeled anti-phosphotyrosine in buffer containing 25 mM Tris-HCl buffer pH 7.4, 5 mM MgCl2, 0.05 mM Na3VO4, 0.004% TritonX-100, 2 mM DTT and 0.05% IgG in a final volume of 50 μl was added followed by incubation at room temperature for 45 min. The unbound reagents were removed by one time washing with water, and the TAG label was detected in presence of 150 μl IPR assay buffer (0.4 mM Gly—Gly buffer, pH 7.8, 1 mM EDTA, 0.1 M TPA). The ECL signals were measured using an imaging plate reader.
as §1

The test system of assay [2] is tyrosine kinases reported to be the target of each inhibitor. To be noted: read-out: reported IC50 concentration (1× concentration); for the kinase reported to be the target of the inhibitor; cited from earlier work.
For assay [3], the system named is pooled phosphopeptide:BSA conjugates (Pools A-D). The experiment in a line: Coded multiplex phosphopeptide binding assay with pooled peptide:BSA conjugates on 4 spots. From the text: To prepare the Multi-Spot IPR plates, in this example we made use of pools of the peptide:BSA conjugates to coat each of 4 spots per well in a 96 well plate. To achieve this we made the following pools; • Pool A; EGFR-pTyr1148, IkBa-24ppC, Myc-p58Tp62S. • Pool B; EGFR-pTyr992, EGFR-pTyr1148, Smad3C. • Pool C; EGFR-pTyr1068, IkBa-24ppC, Smad3C. • Pool D; EGFR-pTyr992, EGFR-pTyr1068, Myc-p58Tp62S.
This combination of the various peptides results in any single peptide being present in two pools. Each of these four pools is then spotted on to a unique spot in a 4 spot array. In this way any single binding protein with specificity for only one of the peptides would bind to two spots; the identity of the two spots would allow the identification of the peptide involved in the binding reaction.
Typically approximately 120 fmole of peptide:BSA conjugate in 0.25 μl was deposited on each spot of a 4-spot multi-array IPR plates using a BioDot Dispenser (Bio-Dot Inc., vIrvine Calif.). At this stage, the plates were dried then used or stored under desiccated condition. A few hours prior to usage, the plates were rehydrated and blocked with 3% BSA, in PBS.
To test the system the following EST clones IMAGE # 3491843, 4237375, 4398016, 4419252, 3872466, 3907115 were obtained. These clones express the following genes βTRCP1, βTRCP2, Grb2, PLCγ, CBP and Shc1, respectively. […] These DNAs were used to produce proteins as described in the Materials and Methods. Proteins were transferred to a well of the 4 spot peptide-coated and BSA blocked ECL plates. The binding assay (using Sulfo-TAG labeled streptavidin as a detection agent) was carried our according to the procedures described in Example 11.

In the assay with pEY, “3866791: IMAGE clone protein: JAK1, Janus kinase 1 [compound 3866791]” came in with an HTS signal of 729.
In the case of “3896359: IMAGE clone protein: FGFR1, fibroblast growth factor receptor 1 (fms-related TK2) [compound 3896359]”, in assay [1], the ECL signal was 7,696. Also, the HTS signal in the assay on pEY is on record as 2,339.
The corresponding values for “4515877: IMAGE clone protein: Frk, fyn-related kinase [compound 4515877]” are 148,139 and 271,855.
The corresponding values for “4419031: IMAGE clone protein: BLK, B lymphoid tyrosine kinase [compound 4419031]” are 146,775 and 37,907.
For “4387232: IMAGE clone protein: CLK1, CDC-like kinase 1 [compound 4387232]”, in that order: 423,938 and 5,109.
As for “3156953: IMAGE clone protein: Wee1, wee 1 homolog (S. pombe) [compound 3156953]”, the ECL signal in assay [1] is 27,452. The compound also displayed an HTS signal in the assay on pEY of 981.
As for “4471986: IMAGE clone protein: ALK, anaplastic lymphoma kinase (Ki-1) [compound 4471986]”, the ECL signal in assay [1] is listed as 4,069. Further, the HTS signal in the assay with pEY stood at 905.
The corresponding values for “3921724: IMAGE clone protein: FGR, FYN oncogene related to SRC [compound 3921724]” are 241,697 and 93,081.
The corresponding values for “4037899: IMAGE clone protein: FGFR1, fibroblast growth factor receptor 1 [compound 4037899]” are 240,550 and 450,413.
As for `CC(C)c1cc(/C=C(\C#N)C(=O)NCCCc2ccccc2)cc(C(C)C)c1O` [SU-1498], the IC50 in assay [2] is 700 nM.
Regarding “4419700: IMAGE clone protein: LCK, lymphocyte-specific protein tyrosine kinase [compound 4419700]”, the ECL signal in assay [1] is 7,230. The compound further yielded an HTS signal in the assay with pEY of 898.
Take “4191610: IMAGE clone protein: LCK, lymphocyte protein tyrosine kinase [compound 4191610]”: the ECL signal in assay [1] was 24,183. The HTS signal in the assay with pEY is listed as 3,110.
The corresponding values for “3601246: IMAGE clone protein: FRK, B-cell src-homology tyrosine kinase [compound 3601246]” are 28,243 and 15,235.
Regarding `CCOc1cc2ncnc(Nc3cccc(Br)c3)c2cc1OCC` [Compound-56], the IC50 in assay [2] was 0.006 nM.
“4181574: IMAGE clone protein: NTRK3, neurotrophic tyrosine kinase [compound 4181574]”: the ECL signal in assay [1] is listed as 55,017. Also, the HTS signal in the assay on pEY was 36,515.
For “4343428: IMAGE clone protein: PTK2B, protein tyrosine kinase 2 beta [compound 4343428]”, in that order: 274,742 and 57,486.
The corresponding values for “4363897: IMAGE clone protein: FGR, FYN oncogene related to SRC [compound 4363897]” are 44,220 and 402,243.
For “3995512: IMAGE clone protein: CLK2, CDC-like kinase 2 [compound 3995512]”, in that order: 20,748 and 634.
On to “4036253: IMAGE clone protein: CLK3, CDC-like kinase 3 [compound 4036253]”, for which the ECL signal in assay [1] is given as 42,712. In the assay with pEY, the HTS signal turned out to be 704.
Consider `COc1cc2ncnc(Nc3cccc(Cl)c3)c2cc1OC` [AG-1478], for which the IC50 in assay [2] is 3 nM.
Regarding “3989782: IMAGE clone protein: Yes, Yamaguchi sarcoma viral (v-yes) oncogene homolog [compound 3989782]”, in assay [1], the ECL signal is 4,542. Besides, the HTS signal in the assay on pEY is listed as 2,208.
For “3982920: IMAGE clone protein: Clk4, CDC like kinase 4 [compound 3982920]”, in that order: 192,787 and 2,244.
Regarding “4398016: IMAGE clone protein: Grb2 [compound 4398016]”, in assay [3], the “Code (pattern of positive spots)” value is given as “C, D” and the “Peptide determined from code” value was “EGFR-pTyr1068”. The “ECL signal, spot A” value in assay [3] (Pool A, EGFR-pTyr1148, IkBa-24ppC, Myc-p58Tp62S) worked out at 36. Also, in assay [3] (Pool B, EGFR-pTyr992, EGFR-pTyr1148, Smad3C), the “ECL signal, spot B” value is listed as 38. Moreover, the “ECL signal, spot C” value in assay [3] (Pool C, EGFR-pTyr1068, IkBa-24ppC, Smad3C) is on record as 509. Further, the “ECL signal, spot D” value in assay [3] (Pool D, EGFR-pTyr992, EGFR-pTyr1068, Myc-p58Tp62S) came out at 386.
Take “4419973: IMAGE clone protein: FGR, Gardner-Rasheed feline sarcoma viral (v-fgr) oncogene homolog [compound 4419973]”: the ECL signal in assay [1] was 117,395. The HTS signal with pEY was 104,946.
